Test results published in ChEMBL document CHEMBL1152364, “Dipeptidyl nitrile inhibitors of Cathepsin L” (Bioorg Med Chem Lett, 2009).

Assays:
Cathepsin K = biological target: T1, Cathepsin K (Homo sapiens, UniProt P43235); assay: Inhibition of cathepsin K
T1 sequence (P43235 whole entry): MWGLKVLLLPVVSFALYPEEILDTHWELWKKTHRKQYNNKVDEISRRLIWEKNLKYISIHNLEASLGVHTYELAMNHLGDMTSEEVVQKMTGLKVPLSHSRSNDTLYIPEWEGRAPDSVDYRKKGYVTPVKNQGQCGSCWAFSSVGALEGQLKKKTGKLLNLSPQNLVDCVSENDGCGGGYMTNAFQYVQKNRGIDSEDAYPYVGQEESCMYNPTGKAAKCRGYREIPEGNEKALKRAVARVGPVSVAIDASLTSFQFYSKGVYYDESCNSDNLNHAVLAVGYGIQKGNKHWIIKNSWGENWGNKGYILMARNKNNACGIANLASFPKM

Procathepsin L = Procathepsin L (Homo sapiens, UniProt P07711); assay: Inhibition of cathepsin L
Sequence of Procathepsin L (P07711 whole entry): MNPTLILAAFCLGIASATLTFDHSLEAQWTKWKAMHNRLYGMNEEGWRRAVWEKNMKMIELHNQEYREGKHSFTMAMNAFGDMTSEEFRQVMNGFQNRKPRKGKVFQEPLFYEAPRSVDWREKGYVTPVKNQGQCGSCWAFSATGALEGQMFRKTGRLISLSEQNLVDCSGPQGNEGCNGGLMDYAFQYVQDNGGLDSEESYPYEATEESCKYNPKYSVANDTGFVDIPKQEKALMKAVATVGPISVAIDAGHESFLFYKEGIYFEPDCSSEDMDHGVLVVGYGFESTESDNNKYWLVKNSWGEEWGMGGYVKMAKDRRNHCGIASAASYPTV

Cathepsin S = Cathepsin S (Homo sapiens, UniProt P25774); assay: Inhibition of cathepsin S
Sequence of Cathepsin S (P25774 whole entry): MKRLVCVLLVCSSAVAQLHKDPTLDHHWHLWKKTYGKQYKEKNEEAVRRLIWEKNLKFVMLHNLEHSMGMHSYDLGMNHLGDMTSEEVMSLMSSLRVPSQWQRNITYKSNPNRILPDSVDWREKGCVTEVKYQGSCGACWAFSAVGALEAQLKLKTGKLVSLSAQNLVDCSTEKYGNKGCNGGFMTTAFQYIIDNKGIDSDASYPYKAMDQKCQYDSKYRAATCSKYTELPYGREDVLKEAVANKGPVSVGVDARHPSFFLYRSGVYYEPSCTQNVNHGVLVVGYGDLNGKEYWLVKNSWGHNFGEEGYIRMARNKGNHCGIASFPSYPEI

Cathepsin L2 = biological target: T2, Cathepsin L2 (Homo sapiens, UniProt O60911); assay: Inhibition of cathepsin L2
T2 sequence (O60911 whole entry): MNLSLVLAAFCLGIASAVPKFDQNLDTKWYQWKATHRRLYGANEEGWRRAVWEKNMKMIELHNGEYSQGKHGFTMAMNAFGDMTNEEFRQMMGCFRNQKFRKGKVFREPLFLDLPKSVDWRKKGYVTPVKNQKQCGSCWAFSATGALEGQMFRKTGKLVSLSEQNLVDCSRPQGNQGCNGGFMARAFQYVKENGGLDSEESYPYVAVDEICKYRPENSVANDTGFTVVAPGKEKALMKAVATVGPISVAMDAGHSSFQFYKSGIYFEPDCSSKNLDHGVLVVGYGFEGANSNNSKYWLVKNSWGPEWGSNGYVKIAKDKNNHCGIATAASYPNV

Cathepsin B = Cathepsin B (Homo sapiens, UniProt P07858); assay: Inhibition of cathepsin B

SMILES	IC50 (Cathepsin K) [nM]	IC50 (Procathepsin L) [nM]	IC50 (Cathepsin S) [nM]	IC50 (Cathepsin L2) [nM]	IC50 (Cathepsin B) [nM]
Cc1nc(C(=O)N[C@@H](Cc2cccc(Cl)c2)C(=O)NCC#N)c(C)o1	10000	631	794	2510	> 10000
N#CCNC(=O)[C@H](Cc1cccc(Cl)c1)NC(=O)C1=CCCCC1	> 10000	501	2000	398	> 10000
Cc1ccc(C(=O)N[C@@H](Cc2cccc(Cl)c2)C(=O)NCC#N)cc1	1260	251	631	1000	2510
N#CCNC(=O)[C@H](Cc1cccc(Cl)c1)NC(=O)c1cccc(Cl)c1	6310	79.4	200	200	3980
N#CCNC(=O)[C@H](Cc1cccc(Cl)c1)NC(=O)c1cccc2c1CCCC2	> 10000	398	> 10000	> 10000	> 10000
Cc1cc(C(=O)N[C@@H](Cc2cccc(Cl)c2)C(=O)NCC#N)c2cc(C)ccc2c1	> 10000	20	1000	1000	> 10000
Cc1cccc(C(=O)N[C@@H](Cc2cccc(Cl)c2)C(=O)NCC#N)c1	6310	251	398	794	5010
CC(C)c1cc(C(=O)N[C@@H](Cc2cccc(Cl)c2)C(=O)NCC#N)n(C)n1	2000	79.4	794	501	5010
Cc1nc(C)c(C(=O)N[C@@H](Cc2cccc(Cl)c2)C(=O)NCC#N)s1	1260	398	200	251	10000
CCc1cc(C(=O)N[C@@H](Cc2cccc(Cl)c2)C(=O)NCC#N)n(C)n1	5010	63.1	794	501	7940
Cc1cc(C)cc(C(=O)N[C@@H](Cc2cccc(Cl)c2)C(=O)NCC#N)c1	> 10000	50.1	316	200	7940
N#CCNC(=O)[C@H](Cc1cccc(Cl)c1)NC(=O)C1CCCCCC1	5010	316	2510	6310	> 10000
Cc1cc(C(=O)N[C@@H](Cc2cccc(Cl)c2)C(=O)NCC#N)n(C)n1	6310	501	794	1260	> 10000
Cc1nn(C)cc1C(=O)N[C@@H](Cc1cccc(Cl)c1)C(=O)NCC#N	2510	1260	1260	1260	> 10000
N#CCNC(=O)[C@H](Cc1cccc(Cl)c1)NC(=O)c1cccc2ccccc12	> 10000	251	3160	3980	10000
Cc1ccccc1C(=O)N[C@@H](Cc1cccc(Cl)c1)C(=O)NCC#N	5010	794	1580	5010	> 10000
N#CCNC(=O)[C@H](Cc1cccc(Cl)c1)NC(=O)C1CCCCC1	> 10000	1260	2510	6310	> 10000
Cc1cc(C(=O)N[C@@H](Cc2cccc(Cl)c2)C(=O)NCC#N)c(C)s1	5010	79.4	794	501	2000
Cc1ccc(C)c(C(=O)N[C@@H](Cc2cccc(Cl)c2)C(=O)NCC#N)c1	6310	79.4	1260	1580	5010
N#CCNC(=O)[C@H](Cc1cccc(Cl)c1)NC(=O)c1ccnc2ccccc12	> 10000	100	3160	3160	> 10000
Cc1cccc(C(=O)N[C@@H](Cc2cccc(Cl)c2)C(=O)NCC#N)c1C	> 10000	316	2000	3980	> 10000
